Converted amounts (≈) assume the structure as drawn.
How the values were obtained:
Assay in all cases: MIC, broth-microdilution (CLSI VET01-A4)
Assay type in all cases: cell-based
[1] = tested on: Mannheimia haemolytica MH 13093 (XB0472-6014.1, BRD field isolate)
Protocol: (§1) The Minimum inhibitory concentrations (MIC) of compounds according to the invention for a number of veterinary bacterial pathogens were determined by the broth-microdilution method according to CLSI document VET01-A4.
(§2) Microdilution trays containing a doubling dilution series of the test compound were used for the tests. The MIC results were interpreted according to the CLSI documents VET01-S3. The lowest concentration of compound at which no visible growth (i.e. no turbidity) detected by the unaided eye was recorded as the MIC.

[2] = tested on: Mannheimia haemolytica MH 10720 (154, BRD field isolate); settings: Mannheimia haemolytica MH 10720
Protocol: as §1, §2
(§3) The Minimum inhibitory concentrations (MIC) of compounds according to the invention were determined by the broth-microdilution method according to CLSI document VET01-A4.
(§4) Microdilution trays containing a doubling dilution series of the test compound were used for the tests.
(§5) The MIC results were interpreted according to the CLSI documents VET01-S3. The lowest concentration of compound at which no visible growth (i.e. no turbidity) detected by the unaided eye was recorded as the MIC.

[3] = tested on: Mannheimia haemolytica MH 6357 (M7/2, reference strain, cattle infection strain); settings: Mannheimia haemolytica MH 6357; for MIC: read-out: MIC MH 6357
Protocol: as §1, §2, §3, §4, §5

[4] = tested on: Pasteurella multocida PM 12080 (IV102277-0093, BRD field isolate); settings: Pasteurella multocida PM 12080
Protocol: as §1, §2, §3, §4, §5

[5] = tested on: Pasteurella multocida PM 6391 (ATCC 43137, reference strain); settings: Pasteurella multocida PM 6391
Protocol: as §1, §2, §3, §4, §5

[6] = tested on: Mannheimia haemolytica MH 6374 (ATCC 33396, reference strain); settings: Mannheimia haemolytica MH 6374; for MIC: read-out: MIC MH 6374
Protocol: as §1, §2, §3, §4, §5

[7] = tested on: Mannheimia haemolytica MH 12587 (1071, BRD field isolate, macrolide-resistance: erm+, E+); settings: Mannheimia haemolytica MH 12587, macrolide-resistant
Protocol: as §1, §2, §3, §4, §5

[8] = tested on: Pasteurella multocida PM 6267 (P 2225 (L386), reference strain, mouse infection strain); settings: Pasteurella multocida PM 6267
Protocol: as §1, §2, §3, §4, §5

Structure (SMILES) | MIC [1] [µM] | MIC MH 10720 [2] | MIC [3] [µM] | MIC PM 12080 [4] | MIC PM 6391 [5] | MIC [6] [µM] | MIC MH 12587 [7] [µM] | MIC PM 6267 [8] | MIC MH 6374 [6] | MIC MH 6357 [3]
C#CCNCc1ccc(C#Cc2ccc(C(=O)N[C@H](C(=O)NO)[C@@H](C)O)cc2)cn1 [Compound 490] | 1.6 (≈ 0.65 µg/mL) | <=0.1 μM | 0.4 (≈ 0.163 µg/mL) | <=0.1 μM | <=0.1 μM | 0.8 (≈ 0.325 µg/mL) | 1.6 (≈ 0.65 µg/mL) |  |  | 
Cc1cnc(CNCc2ccc(C#Cc3ccc(C(=O)N[C@H](C(=O)NO)[C@@H](C)O)cc3)s2)o1 [Compound 484] | 0.8 (≈ 0.375 µg/mL) | <=0.1 μM | 0.2 (≈ 0.0937 µg/mL) | <=0.1 μM | <=0.1 μM | 0.4 (≈ 0.187 µg/mL) | 0.8 (≈ 0.375 µg/mL) | <=0.1 μM |  | 
C#CCNCc1ccc(C#Cc2ccc(C(=O)N[C@H](C(=O)NO)[C@@H](C)O)cc2)cc1 [C. 469] | 0.4 (≈ 0.162 µg/mL) | <=0.1 μM | 0.2 (≈ 0.0811 µg/mL) | <=0.1 μM | <=0.1 μM |  | 0.4 (≈ 0.162 µg/mL) | <=0.1 μM | <=0.1 μM | 
C#CCNCc1ccc(C#Cc2ccc(C(=O)N[C@H](C(=O)NO)[C@@H](C)O)cc2)s1 [Compound 479] | 0.8 (≈ 0.329 µg/mL) | <=0.1 μM |  | <=0.1 μM | <=0.1 μM | 0.2 (≈ 0.0823 µg/mL) | 0.8 (≈ 0.329 µg/mL) | <=0.1 μM |  | <=0.1 μM
C[C@@H](O)[C@H](NC(=O)c1ccc(C#Cc2ccc(CNCC(F)(F)F)nc2)cc1)C(=O)NO [Compound 487] | 1.6 (≈ 0.721 µg/mL) | <=0.1 μM | 0.4 (≈ 0.18 µg/mL) | <=0.1 μM | <=0.1 μM | 1.6 (≈ 0.721 µg/mL) | 1.6 (≈ 0.721 µg/mL) | <=0.1 μM |  | 
C[C@@H](O)[C@H](NC(=O)c1ccc(C#Cc2ccc(CNCc3ccc(F)cc3)s2)cc1)C(=O)NO [Compound 485] | 0.2 (≈ 0.0963 µg/mL) | <=0.1 μM |  | <=0.1 μM | <=0.1 μM |  | 0.4 (≈ 0.193 µg/mL) | <=0.1 μM | <=0.1 μM | <=0.1 μM
CSCCNCc1ccc(C#Cc2ccc(C(=O)N[C@H](C(=O)NO)[C@@H](C)O)cc2)s1 [Compound 482] | 0.8 (≈ 0.358 µg/mL) | <=0.1 μM | 0.2 (≈ 0.0895 µg/mL) | <=0.1 μM | <=0.1 μM | 0.4 (≈ 0.179 µg/mL) | 0.8 (≈ 0.358 µg/mL) | <=0.1 μM |  | 
Cc1cnc(CNCc2ccc(C#Cc3ccc(C(=O)N[C@H](C(=O)NO)[C@@H](C)O)cc3)cc2)o1 [Compound 474] | 0.8 (≈ 0.37 µg/mL) | <=0.1 μM | 0.2 (≈ 0.0925 µg/mL) | <=0.1 μM | <=0.1 μM | 0.4 (≈ 0.185 µg/mL) | 0.8 (≈ 0.37 µg/mL) | <=0.1 μM |  | 
CC(O)C(NC(=O)c1ccc(C#CC#CC=CCN(C)Cc2ccccc2)cc1)C(=O)NO (centres unmarked) [Compound 452] | 0.8 (≈ 0.356 µg/mL) |  | 0.2 (≈ 0.0891 µg/mL) | <=0.1 μM | <=0.1 μM | 0.4 (≈ 0.178 µg/mL) | 0.8 (≈ 0.356 µg/mL) | <=0.1 μM |  | 
C[C@@H](O)[C@H](NC(=O)c1ccc(C#Cc2ccc(CN3CC=CC3)cc2)cc1)C(=O)NO [Compound 468] | 0.4 (≈ 0.168 µg/mL) | <=0.1 μM |  | <=0.1 μM | <=0.1 μM |  | 0.4 (≈ 0.168 µg/mL) | <=0.1 μM | <=0.1 μM | <=0.1 μM
CSCCNCc1ccc(C#Cc2ccc(C(=O)N[C@H](C(=O)NO)[C@@H](C)O)cc2)cc1 [Compound 472] | 1.6 (≈ 0.706 µg/mL) | <=0.1 μM | 0.4 (≈ 0.177 µg/mL) | <=0.1 μM | <=0.1 μM | 0.8 (≈ 0.353 µg/mL) | 1.6 (≈ 0.706 µg/mL) | <=0.1 μM |  | 

Source: US20230000813A1, “COMPOUND FOR THE TREATMENT OF BOVINE OR SWINE RESPIRATORY DISEASE” (Intervet Inc., priority 2016, published 2023)
